Reference: patent publication US20250268909A1, “Combination Therapy” (US Oncology Corporate, Inc., priority 2022, published 2025)
Values joined by “and” are separate entries in the source; they are usually repeats but may differ in a detail not shown here. Equal values may be shown once.

Key:
Pgp = Pgp (Homo sapiens, UniProt P08183); details: cell culture model; cited from earlier work
[1] = tested on: breast cancer xenograft models; details: alisertib added to either paclitaxel or docetaxel; cited from earlier work
[2] = phase II trial, dose modifications in ER+/ERBB2-negative cohort (safety population); type: in vivo, human
Procedure: (§1) Administration of 5 μg/kg filgrastim was allowed for treatment-limiting neutropenia, and loperamide was used to treat diarrhea but was not allowed prophylactically in cycle 1.
Incidence and grades of AEs for all patients were analyzed using the safety population which included all patients (eligible and ineligible) who received at least 1 dose of study drug. Toxic effects were reported and tabulated by numbers and frequencies for all related AEs. SAS statistical software version 9.4 (SAS Institute) was used for all data analysis. Data were analyzed from March through May 2019.

[3] = tested on: TN metastatic or locally recurrent breast cancer; experiment: randomized phase II trial, TN cohort, efficacy; type: in vivo, human
Description: (§2) Other information about this phase II clinical trial is included in O'Shaughnessy et al., JAMA Network Open. 2021, 4(4):e214103, the entire contents of which are incorporated herein by reference.
(§3) Eligible patients were postmenopausal women aged 18 years or older with metastatic or unresectable locally recurrent breast cancer that was histologically confirmed as ER+/HER2− invasive breast cancer (any progesterone receptor status), with Ki67 greater than 15% in primary or metastatic tissue, or grade 3 TNBC, to enrich for more highly proliferative cancers that may be more dependent on AURKA. HER2− negative was defined as immunohistochemistry (IHC) status of 0, 1+, or 2+(if IHC was 2+, a negative FISH test was required with a ratio <2.0 and an average HER2 copy number <4.0 signals/cell). ER-negative and progesterone receptor (PR)-negative status was defined as ER and PR less than 1% nuclei positive by IHC. Patients may have been treated with 0 or 1 chemotherapy regimen for advanced disease and with neo/adjuvant taxane therapy at least 12 months before the development of metastatic disease. An Eastern Cooperative Group (ECOG) performance status of 0 or 1 and adequate hematologic, cardiac, renal, and liver function were required. Eligible patients were required to have measurable disease by Response Evaluation Criteria in Solid Tumors (RECIST v 1.1) criteria, or lytic or mixed blastic/lytic bone-only disease. Patients with untreated or progressing brain metastases, or those who required corticosteroids, were not eligible.
as §1
(§4) Computed tomography (CT) of chest, abdomen, and pelvis was performed at screening. Chest and abdominal CT imaging were then performed every 8 weeks after initiation of treatment for the first 32 weeks of treatment and every 12 weeks thereafter for the duration of the treatment period, and at End of Treatment (EoT). Pelvic CT imaging was obtained at subsequent tumor assessments only if pelvic metastases were identified at screening. Bone scans were obtained on all patients at screening and then every 12 weeks in patients with bone metastases on their baseline bone scan.
(§5) Patients were stratified as ER-positive, HER2-negative cohort and TN cohort based on results of ER, progesterone receptor, and HER2 measurements on their metastatic tissue, or, if not available, on their primary breast cancer tissue.
The TN and ER-positive, HER2-negative cohorts were analyzed independently, and no change to the statistical plan was made based on the underaccrual to the TN group.
(§6) Patients' baseline demographic and disease characteristics were summarized for the intent-to-treat population, which included all patients registered on study and were described by means with SDs and medians with ranges for continuous variables and by numbers with percentages for categorical variables. PFS was defined as the time from date of registration in the study to the date of first progression of disease or the date of death. Patients whose disease had not progressed were censored at the last contact date. OS was measured from the date of registration to the date of death. PFS and OS were estimated using Kaplan-Meier methods with 95% CIs in the intent-to-treat population and compared by log-rank tests.
(§7) The protocol-defined evaluable population included all eligible patients who received at least 1 dose of study drug. CBR and ORR were examined using univariate and multivariate approaches with Fisher exact tests and the logistic regression models. The 95% CIs were estimated for CBR and ORR assuming binomial distribution. A χ^2 test was used to estimate the differences between CBRs and ORRs in the two arms.

[4] = tested on: ER-positive, HER2-negative metastatic or locally recurrent breast cancer; experiment: randomized phase II trial, ER+/HER2− cohort, efficacy; type: in vivo, human
Description: as §2
as §3, with “Patients may have been treated with 0 or 1 chemotherapy regimen for advanced disease and with neo/adjuvant taxane therapy at least 12 months before the development of metastatic disease.” left out
as §1, §4, §5, §6, §7

[5] = phase II trial, adverse events (safety population, CTCAE v4.03); type: in vivo, human
Procedure: Safety was assessed throughout the study. Adverse events were graded and reported according to the National Cancer Institute Common Terminology Criteria for Adverse Events (CTCAE version 4.03).

[6] = Arm 1 (paclitaxel plus alisertib), n=66
[7] = TN cohort, evaluable patients (P+A n=16, P n=12)
[8] = ER+/HER2− cohort, evaluable patients (P+A n=58, P n=62)
[9] = treatment-related, ER+/HER2− and TN cohorts

Sequence of Pgp (P08183 whole entry): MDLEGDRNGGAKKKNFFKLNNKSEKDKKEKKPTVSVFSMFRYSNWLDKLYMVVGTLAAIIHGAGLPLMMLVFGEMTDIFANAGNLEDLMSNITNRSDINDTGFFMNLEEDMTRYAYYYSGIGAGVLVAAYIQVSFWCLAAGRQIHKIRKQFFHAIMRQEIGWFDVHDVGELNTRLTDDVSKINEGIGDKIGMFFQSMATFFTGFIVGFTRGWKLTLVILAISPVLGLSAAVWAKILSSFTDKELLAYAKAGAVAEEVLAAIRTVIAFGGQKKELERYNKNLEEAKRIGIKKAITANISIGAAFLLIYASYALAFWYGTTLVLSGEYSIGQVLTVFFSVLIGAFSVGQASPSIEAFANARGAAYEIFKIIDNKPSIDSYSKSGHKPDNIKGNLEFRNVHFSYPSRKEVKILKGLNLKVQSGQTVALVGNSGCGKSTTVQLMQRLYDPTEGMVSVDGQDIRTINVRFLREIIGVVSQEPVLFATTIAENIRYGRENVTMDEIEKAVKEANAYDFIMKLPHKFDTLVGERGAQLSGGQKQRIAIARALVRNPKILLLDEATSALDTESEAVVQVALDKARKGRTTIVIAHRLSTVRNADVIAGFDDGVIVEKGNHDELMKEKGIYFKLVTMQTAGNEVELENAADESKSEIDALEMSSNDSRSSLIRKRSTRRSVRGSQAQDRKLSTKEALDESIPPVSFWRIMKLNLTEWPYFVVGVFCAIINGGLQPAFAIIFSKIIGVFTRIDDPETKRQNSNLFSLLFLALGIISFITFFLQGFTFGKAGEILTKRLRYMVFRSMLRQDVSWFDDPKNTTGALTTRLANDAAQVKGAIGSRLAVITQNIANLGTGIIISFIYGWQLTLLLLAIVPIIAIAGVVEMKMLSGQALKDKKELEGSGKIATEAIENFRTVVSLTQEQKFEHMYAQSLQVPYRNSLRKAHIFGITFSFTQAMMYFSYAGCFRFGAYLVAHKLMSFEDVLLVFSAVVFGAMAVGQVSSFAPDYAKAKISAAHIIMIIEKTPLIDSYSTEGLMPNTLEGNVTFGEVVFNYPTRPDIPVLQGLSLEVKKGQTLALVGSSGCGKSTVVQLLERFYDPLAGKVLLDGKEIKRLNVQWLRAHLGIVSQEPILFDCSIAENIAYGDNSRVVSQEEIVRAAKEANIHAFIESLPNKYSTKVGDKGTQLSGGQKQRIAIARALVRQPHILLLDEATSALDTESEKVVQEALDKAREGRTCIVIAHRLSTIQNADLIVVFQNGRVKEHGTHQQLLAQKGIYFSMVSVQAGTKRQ

## COc1cc(Nc2ncc3c(n2)-c2ccc(Cl)cc2C(c2c(F)cccc2OC)=NC3)ccc1C(=O)O [Alisertib, 4-{[9-chloro-7-(2-fluoro-6-methoxyphenyl)-5H-pyrimido[5,4-d][2]benzazepin-2-yl]amino}-2-methoxybenzoic acid]
Pgp
  Pgp-mediated efflux of paclitaxel: inhibited Pgp-mediated efflux of paclitaxel
[1]
  effect of combination in breast cancer xenograft models: Synergistic or additive effects
[2]; [6]
  Patients with both dose delay and reduction: (62.1) %
  Patients with dose delay alone: (18.2) %
  Patients with dose discontinuation: (30.3) %
  Patients with dose increased: (1.5) %
  Patients with dose reduction alone: (7.6) %
[2]; Arm 1 (paclitaxel plus alisertib), n=66, listed as alisertib
  Patients with both dose delay and reduction: 62.1%

## CC(=O)O[C@H]1C(=O)[C@@]2(C)[C@H]([C@H](OC(=O)c3ccccc3)[C@]3(O)C[C@H](OC(=O)[C@H](O)[C@@H](NC(=O)c4ccccc4)c4ccccc4)C(C)=C1C3(C)C)[C@]1(OC(C)=O)CO[C@@H]1C[C@@H]2O [Paclitaxel, (2α,4α,5β,7β,10β,13α)-4,10-Bis(acetyloxy)-13-{[(2R,3S)-3-(benzoylamino)-2-hydroxy-3-phenylpropanoyl]oxy}-1,7-dihydroxy-9-oxo-5,20-epoxytax-11-en-2-yl benzoate]
[3]; 35 patients with TN MBC, intent-to-treat, listed as paclitaxel alone
  median (IQR) PFS: 5.7 (2.9-8.2) months and 5.7 months
[3]; [7]
  Best Overall Response: CR: 0%
  Best Overall Response: PD: 2 (16.7) %
  Best Overall Response: PR: 5 (41.7) %
  Best Overall Response: SD: 5 (41.7) %
  CBR (CR + PR + SD ≥ 6 months): 7 (58.3) %
  ORR (CR + PR): 5 (41.7) %
[3]; median follow-up 13.7 months
  median (IQR) OS: 12.7 (6.8-23.5) months
[4]; 30 patients pretreated with palbociclib for MBC (16 P, 14 P+A), listed as paclitaxel alone
  median (IQR) PFS in patients previously treated with palbociclib: 5.6 (3.0-10.6) months and 5.6 months
[4]; ER+/HER2− cohort
  CBR in patients pretreated with palbociclib: 37.5%
[4]; [8]
  Best Overall Response: CR: 0%
  Best Overall Response: PD: 8 (12.9) %
  Best Overall Response: SD: 33 (53.2) %
[4]; ER+/HER2− cohort, evaluable patients (P+A n=58, P n=62), listed as P
  CBR (CR + PR + SD ≥ 6 months): 35 (56.5) %
[4]; ER+/HER2− cohort, evaluable patients (P+A n=58, P n=62), listed as paclitaxel alone
  CBR (CR + PR + SD ≥ 6 months): 56.5%
[4]; ER-positive, HER2-negative MBC
  estimated PFS at 12 months: 15.4%
[4]; ER-positive, HER2-negative MBC, intent-to-treat, listed as paclitaxel alone
  median (IQR) PFS: 7.1 (3.8-10.6) months and 7.1 months
[4]; median follow-up 22 months
  median (IQR) OS: 25.1 (11.0-31.4) months
[5]; all patients combined
  grade 3 or 4 anemia, patients: 1.2%
  grade 3 or 4 diarrhea, patients: 0%
  grade 3 or 4 neutropenia, patients: 16.4%
  grade 3 or 4 stomatitis or oral mucositis, patients: 0%
[5]; in vivo
  grade 3 or 4 neuropathy, patients: 11.40%
  patients who received standard-dose (5 μg/kg) filgrastim: 15.70%
[5]; [9]
  Anemia Grade1: 5 (5.9) n (%)
  Anemia Grade2: 5 (5.9) n (%)
  Anemia Grade3: 1 (1.2) n (%)
  Anemia Grade4: 0 n (%)
  Anemia Total: 11 (12.9) n (%)
  Diarrhea Grade1: 9 (10.6) n (%)
  Diarrhea Grade2: 2 (2.4) n (%)
  Diarrhea Grade3: 0 n (%)
  Diarrhea Grade4: 0 n (%)
  Diarrhea Total: 11 (12.9) n (%)
  Dizziness Grade1: 2 (2.4) n (%)
  Dizziness Grade2: 0 n (%)
  Dizziness Grade3: 0 n (%)
  Dizziness Grade4: 0 n (%)
  Dizziness Total: 2 (2.4) n (%)
  Fatigue Grade1: 26 (30.6) n (%)
  Fatigue Grade2: 6 (7.1) n (%)
  Fatigue Grade3: 2 (2.4) n (%)
  Fatigue Grade4: 0 n (%)
  Fatigue Total: 34 (40.0) n (%)
  Febrile neutropenia Grade1: 0 n (%)
  Febrile neutropenia Grade2: 0 n (%)
  Febrile neutropenia Grade3: 0 n (%)
  Febrile neutropenia Grade4: 0 n (%)
  Febrile neutropenia Total: 0 n (%)
  Headache Grade1: 4 (4.7) n (%)
  Headache Grade2: 1 (1.2) n (%)
  Headache Grade3: 0 n (%)
  Headache Grade4: 0 n (%)
  Headache Total: 5 (5.9) n (%)
  Leukopenia Grade1: 2 (2.4) n (%)
  Leukopenia Grade2: 1 (1.2) n (%)
  Leukopenia Grade3: 2 (2.4) n (%)
  Leukopenia Grade4: 0 n (%)
  Leukopenia Total: 5 (5.9) n (%)
  Mucositis oral Grade1: 4 (4.7) n (%)
  Mucositis oral Grade2: 0 n (%)
  Mucositis oral Grade3: 0 n (%)
  Mucositis oral Grade4: 0 n (%)
  Mucositis oral Total: 4 (4.7) n (%)
  Nausea Grade1: 19 (22.4) n (%)
  Nausea Grade2: 4 (4.7) n (%)
  Nausea Grade3: 1 (1.2) n (%)
  Nausea Grade4: 0 n (%)
  Nausea Total: 24 (28.2) n (%)
  Neuropathy Grade1: 9 (12.9) n (%)
  Neuropathy Grade2: 8 (11.4) n (%)
  Neuropathy Grade3: 8 (11.4) n (%)
  Neuropathy Grade4: 0 n (%)
  Neuropathy Total: 25 (35.7) n (%)
  Neutropenia Grade1: 1 (1.2) n (%)
  Neutropenia Grade2: 3 (3.5) n (%)
  Neutropenia Grade3: 11 (12.9) n (%)
  Neutropenia Grade4: 3 (3.5) n (%)
  Neutropenia Total: 18 (21.2) n (%)
  Stomatitis Grade1: 7 (8.2) n (%)
  Stomatitis Grade2: 0 n (%)
  Stomatitis Grade3: 0 n (%)
  Stomatitis Grade4: 0 n (%)
  Stomatitis Total: 7 (8.2) n (%)
  Thrombocytopenia Grade1: 0 n (%)
  Thrombocytopenia Grade2: 0 n (%)
  Thrombocytopenia Grade3: 0 n (%)
  Thrombocytopenia Grade4: 0 n (%)
  Thrombocytopenia Total: 0 n (%)
[2]; [6]
  Patients with both dose delay and reduction: (16.7) %
  Patients with dose delay alone: (63.6) %
  Patients with dose discontinuation: (16.7) %
  Patients with dose increased: (3.0) %
  Patients with dose reduction alone: (1.5) %
[2]; Arm 1 (paclitaxel plus alisertib), n=66, listed as paclitaxel
  Patients with dose delay alone: 63.6%
[2]; Arm 2 (paclitaxel alone), n=70
  Patients with both dose delay and reduction: (31.4) %
  Patients with dose delay alone: (14.3) %
  Patients with dose discontinuation: (11.4) %
  Patients with dose increased: 0%
  Patients with dose reduction alone: (2.9) %
[2]; Arm 2 (paclitaxel alone), n=70, listed as paclitaxel alone
  Patients with both dose delay and reduction: 31.4%
